Assay results as given in patent US10266535B2, “Inhibitor of FLT3 kinase and use thereof” (HEFEI INSTITUTES OF PHYSICAL SCIENCE, CHINESE ACADEMY OF …, priority 2015, dated 2019).
Where a name gives a salt, the structure may show the parent alone. Read-outs that look alike come from different tables or passages of the source.

Columns and labels:
[1] = test system: U937 (expressing wild-type FLT3 gene); assay: Cell proliferation, Cell Titer-Glo, U937; type: cell-based, human; details: incubated for 72 hours, read-out: U937 IC50
Protocol: (§1) The above cell lines were constructed by our laboratory.
(§2) The number of viable cells was determined by quantification of ATP in living cells using the Cell Titer-Glo® (Promega, USA) chemiluminescence cell viability assay kit.

[2] = test system: BaF3-FLT3-ITD-F691L (stably expressing FLT3/ITD F691L mutant activated kinase); assay: Cell proliferation, Cell Titer-Glo, BaF3-FLT3-ITD-F691L; type: cell-based; details: Mus musculus; incubated for 72 hours; read-out: BaF3-FLT3-ITD-F691L IC50
Protocol: as §1, §2

[3] = test system: TPR-MET-BaF3 (stably expressing MET kinase); assay: Cell proliferation, Cell Titer-Glo, TPR-MET-BaF3; type: cell-based; details: Mus musculus; incubated for 72 hours
Protocol: as §1, §2

BTK protein kinase = BTK protein kinase (Homo sapiens (Human), UniProt Q06187); assay: In vitro inhibition activity (enzymatic activity), ADP-Glo, BTK; type: biochemical; details: ATP 10 μM
[4] = test system: TEL-BaF3-BMX (stably expressing BMX kinase); assay: Cell proliferation, Cell Titer-Glo, TEL-BaF3-BMX; type: cell-based; details: Mus musculus; incubated for 72 hours
Protocol: as §1, §2

pro-B cell BaF3 = assay: Cell proliferation, Cell Titer-Glo, BaF3; type: cell-based; details: Mus musculus, incubated for 72 hours
Protocol: as §1, §2

[5] = test system: TEL-BaF3-BLK (stably expressing BLK kinase); assay: Cell proliferation, Cell Titer-Glo, TEL-BaF3-BLK; type: cell-based; details: Mus musculus; incubated for 72 hours
Protocol: as §1, §2

[6] = test system: OCI-AML-3 (expressing FLT3 A680V mutant gene); assay: Cell proliferation, Cell Titer-Glo, OCI-AML3; type: cell-based; details: Homo sapiens, incubated for 72 hours
Protocol: as §1, §2

[7] = test system: TEL-BaF3-FLT3/ITD (stably expressing FLT3/ITD mutant activated kinase); assay: Cell proliferation, Cell Titer-Glo, TEL-BaF3-FLT3/ITD; type: cell-based, mouse; details: incubated for 72 hours, read-out: TEL-BaF3-FLT3/ITD IC50
Protocol: as §1, §2

[8] = test system: MV4-11 (expressing FLT3/ITD mutant gene); assay: Cell proliferation, Cell Titer-Glo, MV4-11; type: cell-based; details: Homo sapiens, MV4-11; incubated for 72 hours; read-out: MV4-11 IC50
Protocol: as §1, §2

[9] = test system: MOLM-13 (expressing FLT3/ITD mutant gene and wild-type FLT3 gene); assay: Cell proliferation, Cell Titer-Glo, MOLM-13; type: cell-based; details: Homo sapiens, MOLM-13; incubated for 72 hours; read-out: MOLM-13 IC50
Protocol: as §1, §2

[10] = test system: TEL-JAK1-BaF3 (stably expressing JAK1 kinase); assay: Cell proliferation, Cell Titer-Glo, TEL-JAK1-BaF3; type: cell-based; details: Mus musculus; incubated for 72 hours
Protocol: as §1, §2

[11] = test system: MOLM-14 (expressing FLT3/ITD mutant gene and wild-type FLT3 gene); assay: Cell proliferation, Cell Titer-Glo, MOLM-14; type: cell-based; details: Homo sapiens, MOLM-14; incubated for 72 hours; read-out: MOLM-14 IC50
Protocol: as §1, §2

[12] = test system: TEL-cKIT-BaF3 (stably expressing cKIT kinase); assay: Cell proliferation, Cell Titer-Glo, TEL-cKIT-BaF3; type: cell-based; details: Mus musculus; incubated for 72 hours
Protocol: as §1, §2

[13] = test system: TEL-BaF3-FLT3-D835Y (stably expressing FLT3 D835Y mutant activated kinase); assay: Cell proliferation, Cell Titer-Glo, TEL-BaF3-FLT3-D835Y; type: cell-based; details: Mus musculus; incubated for 72 hours; read-out: TEL-BaF3-FLT3-D835Y IC50
Protocol: as §1, §2

[14] = test system: TEL-BaF3-EGFR (stably expressing EGFR kinase); assay: Cell proliferation, Cell Titer-Glo, TEL-BaF3-EGFR; type: cell-based; details: Mus musculus; incubated for 72 hours
Protocol: as §1, §2

Chain of BTK protein kinase (Q06187 whole entry): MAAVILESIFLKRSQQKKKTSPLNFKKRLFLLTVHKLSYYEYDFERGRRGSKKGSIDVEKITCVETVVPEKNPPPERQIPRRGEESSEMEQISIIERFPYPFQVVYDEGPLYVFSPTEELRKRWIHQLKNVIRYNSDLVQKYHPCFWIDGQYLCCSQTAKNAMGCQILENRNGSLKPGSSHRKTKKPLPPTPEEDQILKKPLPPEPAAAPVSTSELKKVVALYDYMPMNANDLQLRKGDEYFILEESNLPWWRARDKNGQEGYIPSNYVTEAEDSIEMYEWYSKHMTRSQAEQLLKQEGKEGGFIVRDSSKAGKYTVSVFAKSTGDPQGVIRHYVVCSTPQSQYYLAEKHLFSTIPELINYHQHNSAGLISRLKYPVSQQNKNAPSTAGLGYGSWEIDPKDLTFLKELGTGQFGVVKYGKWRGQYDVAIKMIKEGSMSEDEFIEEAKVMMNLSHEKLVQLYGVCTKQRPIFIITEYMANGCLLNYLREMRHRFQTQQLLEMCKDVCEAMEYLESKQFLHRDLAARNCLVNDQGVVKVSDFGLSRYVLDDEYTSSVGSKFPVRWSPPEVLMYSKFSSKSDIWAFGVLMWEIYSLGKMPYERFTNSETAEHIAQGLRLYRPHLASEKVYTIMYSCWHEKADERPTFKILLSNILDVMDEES

Row | Structure (SMILES) | IC50 ([1]; Homo sapiens, U-937, 72 h) [µM] | IC50 [2] [nM] | IC50 [3] [nM] | IC50 (BTK protein kinase) [nM] | IC50 [4] [nM] | IC50 (pro-B cell BaF3) [nM] | IC50 [5] [nM] | IC50 [6] [µM] | IC50 ([7]; Mus musculus, 72 h) [nM] | IC50 [8] [nM] | IC50 [9] [nM] | IC50 [10] [nM] | IC50 [11] [nM] | IC50 [12] [nM] | IC50 [13] [nM] | IC50 [14] [µM] | IC50 [1] [µM] | IC50 [7] [nM]
1 | CC(C)[C@@H](N)C(=O)N1CCC[C@@H](n2nc(-c3ccc(Oc4ccccc4)cc3)c3c(N)ncnc32)C1 (stereo in doubt) [Compound 45, (R)-2-amino-1-((R)-3-(4-amino-(4-phenoxyphenyl)-1H-pyrazolo[3,4-d]pyrimidin-1-yl)piperidin-1-yl)-3-methylbutanone] | > 10 | 370 | 1380 | 260 | 92 | 1400 | 96 | 4.2 | 17 | 27 | 25 | – | – | – | – | – | – | –
2 | CC(C)C[C@H](N)C(=O)N1CCC[C@@H](n2nc(-c3ccc(Oc4ccccc4)cc3)c3c(N)ncnc32)C1 [Compound 12, (S)-2-amino-1-((R)-3-(4-amino-(4-phenoxyphenyl)-1H-pyrazolo[3,4-d]pyrimidin-1-yl)piperidin-1-yl)-4-methylpentan-1-one] | 1.6 | – | 1500 | 349 | 600 | – | 960 | – | 45 | 64 | 46 | 520 | 77 | 1000 | 48 | – | – | –
3 | COC(=O)N1CCC(C(=O)N2CCC[C@@H](n3nc(-c4ccc(Oc5ccccc5)cc4)c4c(N)ncnc43)C2)CC1 [Compound 60, (R)-methyl 4-(3-(4-amino-(4-phenoxyphenyl)-1H-pyrazolo[3,4-d]pyrimidin-1-yl)piperidine-1-carbonyl)piperidin-1-carboxylate] | – | – | – | – | – | 4370 | – | – | 300 | 520 | 1360 | 770 | – | – | – | – | – | –
4 | Nc1ncnc2c1c(-c1ccc(Oc3ccccc3)cc1)nn2[C@@H]1CCCN(C(=O)[C@H](N)Cc2ccc(O)cc2)C1 [Compound 10, (R)-2-amino-1-((R)-3-(4-amino-(4-phenoxyphenyl)-1H-pyrazolo[3,4-d]pyrimidin-1-yl)piperidin-1-yl)-3-(4-hydroxyphenyl)propan-1-one] | 3.4 | – | 1400 | 128 | 840 | 1200 | 1000 | – | 110 | 61 | 64 | 400 | 110 | 1100 | 64 | 3.7 | – | –
5 | Nc1ncnc2c1c(-c1ccc(Oc3ccccc3)cc1)nn2[C@@H]1CCCN(C(=O)C(F)(F)F)C1 [Compound 2, (R)-1-(3-(4-amino-(4-phenoxyphenyl)-1H-pyrazolo[3,4-d]pyrimidin-1-yl)piperidin-1-yl)-2,2,2-trifluoroethanone] | > 10 | – | 4700 | – | 82 | 2000 | 630 | – | 120 | 300 | 290 | 1400 | 720 | 1900 | 130 | 6.1 | – | –
6 | C[C@@H](N)C(=O)N1CCC[C@@H](n2nc(-c3ccc(Oc4ccccc4)cc3)c3c(N)ncnc32)C1 [Compound 47] | – | – | 2460 | 27 | 56 | 3800 | 680 | 2.7 | – | 54 | 34 | – | 48 | – | – | – | > 10 | 22
7 | CN[C@H](CC(C)C)C(=O)NC1CCC(n2nc(-c3ccc(Oc4ccccc4)cc3)c3c(N)ncnc32)CC1 (stereo partly drawn) [Compound 92, (R)-N-(4-(4-amino-(4-phenoxyphenyl)-1H-pyrazolo[3,4-d]pyrimidin-1-yl)cyclohexyl)-4-methyl-2-(methylamino)pentanamide hydrochloride] | – | – | – | – | – | 1900 | – | – | < 0.3 | < 0.3 | – | – | < 0.3 | – | < 0.3 | – | – | –
8 | NCC(=O)N1CC[C@@H](n2nc(-c3ccc(Oc4ccccc4)cc3)c3c(N)ncnc32)C1 [Compound 64] | – | – | – | – | 90 | 7590 | 9.8 | – | 80 | 175 | 480 | 1300 | – | 2500 | – | – | – | –
